# Test results: US8034811B2, “Hydroxamic acid esters and pharmaceutical use thereof” (Leo Pharma A/S, priority 2003, dated 2011)
# Target: T1, human intracellular domain of KDR (VEGF Receptor-2) (Homo sapiens, UniProt P35968)
# T1 construct: A fusion protein containing the intracellular domain (amino acids 793 to 1357) of the KDR and N-terminally tagged to GST; made in house; host or cells: Sf9 insect cells (baculovirus, pDEST20) for GST-KDR-cyt; E. coli BL21 (pGEX-4T-1) for GST-PLCγ
# Assay: In vitro KDR kinase assay
# Assay type: biochemical
# Conditions: IC50 as molar concentration; GST-KDR-cyt, substrate phospholipase Cγ, ATP 100 μM, 30 min room temperature, time-resolved fluorometry
# Outline: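 Sf9-expressed, constitutively active human KDR intracellular domain, diluted 3000–3500 fold, incubated 30 min at room temperature with 100 μM ATP on phospholipase Cγ-coated wells in TBS pH 7.4 with Mg acetate, compounds up to 10 μM, 0.1% DMSO max. Phosphotyrosine detected by Eu-PY-20 time-resolved fluorescence; IC50 by linear interpolation around 50% inhibition.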
# T1 sequence (P35968 794-1356 limits assumed): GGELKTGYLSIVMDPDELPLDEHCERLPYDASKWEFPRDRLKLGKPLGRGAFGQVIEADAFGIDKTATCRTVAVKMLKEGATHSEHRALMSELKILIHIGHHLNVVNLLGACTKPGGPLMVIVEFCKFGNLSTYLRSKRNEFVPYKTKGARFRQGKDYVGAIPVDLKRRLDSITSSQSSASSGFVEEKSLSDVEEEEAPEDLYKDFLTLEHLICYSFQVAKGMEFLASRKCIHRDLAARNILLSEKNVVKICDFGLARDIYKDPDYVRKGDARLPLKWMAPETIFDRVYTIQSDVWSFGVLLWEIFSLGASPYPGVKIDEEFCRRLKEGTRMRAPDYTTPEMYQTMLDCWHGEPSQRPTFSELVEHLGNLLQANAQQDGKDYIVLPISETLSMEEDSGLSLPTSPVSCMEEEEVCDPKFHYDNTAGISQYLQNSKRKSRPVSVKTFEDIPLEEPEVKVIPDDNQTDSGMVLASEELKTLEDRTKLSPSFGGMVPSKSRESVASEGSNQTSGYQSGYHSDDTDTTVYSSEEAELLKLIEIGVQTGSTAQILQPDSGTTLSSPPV
row,Compound,IC50
1,"O=C(NOCc1c(F)cccc1Cl)c1ccccc1NCc1ccncc1 [Compound 23, N-(2-Chloro-6-fluoro-benzyloxy)-2-[(pyridin-4-ylmethyl)-amino]-benzamide]",25.1 nM
2,"O=C(NOCc1ccccc1I)c1ccccc1NCc1ccncc1 [Compound 45, N-(2-Iodo-benzyloxy)-2-[(pyridin-4-ylmethyl)-amino]-benzamide]",31.6 nM
3,"O=C(NOCc1c(Cl)cccc1Cl)c1ccccc1NCc1ccncc1 [Compound 16, N-(2,6-Dichloro-benzyloxy)-2-[(pyridin-4-ylmethyl)-amino]-benzamide]",25.1 nM
4,"O=C(NOCc1ccc(Cl)s1)c1ccccc1NCc1ccncc1 [Compound 111, N-(5-Chloro-thiophen-2-ylmethoxy)-2-[(pyridin-4-ylmethyl)-amino]-benzamide]",79.4 nM
5,"O=C(NOCc1ccccc1SC(F)(F)F)c1ccccc1NCc1ccncc1 [Compound 70, 2-[(Pyridin-4-ylmethyl)-amino]-N-(2-trifluoromethylsulfanyl-benzyloxy)-benzamide]",31.6 nM
6,"O=C(NOCc1ccc(F)c(C(F)(F)F)c1)c1ccccc1NCc1ccncc1 [Compound 61, N-(4-Fluoro-3-trifluoromethyl-benzyloxy)-2-[(pyridin-4-ylmethyl)-amino]-benzamide]",15.8 nM
7,"O=C(NOCC1CCCC1)c1ccccc1NCc1ccncc1 [Compound 113, N-Cyclopentylmethoxy-2-[(pyridin-4-ylmethyl)-amino]-benzamide]",2.51 nM
8,"O=C(NOCCOc1ccccc1)c1ccccc1NCc1ccncc1 [Compound 30, N-(2-Phenoxy-ethoxy)-2-[(pyridin-4-ylmethyl)-amino]-benzamide]",1000 nM
9,"N#Cc1ccc(CONC(=O)c2ccccc2NCc2ccncc2)c(F)c1 [Compound 76, N-(4-Cyano-2-fluoro-benzyloxy)-2-[(pyridin-4-ylmethyl)-amino]-benzamide]",25.1 nM
10,"O=C(NOCC1CCC1)c1ccccc1NCc1ccncc1 [Compound 119, N-Cyclobutylmethoxy-2-[(pyridin-4-ylmethyl)-amino]-benzamide]",15.8 nM
11,"COc1c(F)c(F)c(CONC(=O)c2ccccc2NCc2ccncc2)c(F)c1F [Compound 43, 2-[(Pyridin-4-ylmethyl)-amino]-N-(2,3,5,6-tetrafluoro-4-methoxy-benzyloxy)benzamide]",20 nM
12,"N#Cc1cccc(CONC(=O)c2ccccc2NCc2ccncc2)c1 [Compound 74, N-(3-Cyano-benzyloxy)-2-[(pyridin-4-ylmethyl)-amino]-benzamide]",63.1 nM
13,"O=C(NOCc1cccc(C#CCO)c1)c1ccccc1NCc1ccncc1 [Compound 50, N-[3-(3-Hydroxy-prop-1-ynyl)-benzyloxy]-2-[(pyridin-4-ylmethyl)-amino]-benzamide]",63.1 nM
14,"CC(C)CCONC(=O)c1ccccc1NCc1ccncc1 [Compound 118, N-(3-Methyl-butoxy)-2-[(pyridin-4-ylmethyl)-amino]-benzamide]",15.8 nM
15,"O=C(NOCc1ccccc1-c1cccs1)c1ccccc1NCc1ccncc1 [Compound 98, 2-[(Pyridin-4-ylmethyl)-amino]-N-(2-thiophen-2-yl-benzyloxy)-benzamide]",39.8 nM
16,"O=C(NOCc1ccccc1Br)c1ccccc1NCc1ccncc1 [Compound 13, N-(2-Bromo-benzyloxy)-2-[(pyridin-4-ylmethyl)-amino]-benzamide]",15.8 nM
17,"O=C(NOCc1cc(Cl)ccc1Cl)c1ccccc1NCc1ccncc1 [Compound 19, N-(2,5-Dichloro-benzyloxy)-2-[(pyridin-4-ylmethyl)-amino]-benzamide]",63.1 nM
18,"O=C(NOCc1ccc2c(c1)OCO2)c1ccccc1NCc1ccncc1 [Compound 72, N-(Benzo[1,3]-dioxol-5-ylmethoxy)-2-[(pyridin-4-ylmethyl)-amino]-benzamide]",39.8 nM

# Other lines, results leading:
row,IC50,Compound
1,39.8 nM,"N#Cc1ccc(CONC(=O)c2ccccc2NCc2ccnc(N)c2)cc1 [Compound 206, 2-[(2-Amino-pyridin-4-ylmethyl)-amino]-N-(4-cyano-benzyloxy)-benzamide]"
2,7.94 nM,"O=C(NOCC1CCCCCCC1)c1ccccc1NCc1ccncc1 [Compound 122, N-Cyclooctylmethoxy-2-[(pyridin-4-ylmethyl)-amino]-benzamide]"
3,39.8 nM,N#Cc1ccc(CONC(=O)c2ccccc2NCc2ccnc3ccccc23)cc1 [compound 231]
4,63.1 nM,"O=C(NOC1CCCCC1)c1ccccc1NCc1ccncc1 [Compound 124, N-Cyclohexyloxy-2-[(pyridin-4-ylmethyl)-amino]-benzamide]"
5,15.8 nM,"O=C(NOCCCC1CCCC1)c1ccccc1NCc1ccncc1 [Compound 127, N-(3-Cyclopentyl-propoxy)-2-[(pyridin-4-ylmethyl)-amino]-benzamide]"
6,10 nM,N#Cc1ccc(CONC(=O)c2ccccc2NCc2ccnc(NC(=O)NCC(=O)O)c2)cc1 [compound 216]
7,50.1 nM,"O=C(NOCC1CCCCCC1)c1ccccc1NCc1ccncc1 [Compound 121, N-Cycloheptylmethoxy-2-[(pyridin-4-ylmethyl)-amino]-benzamide]"
8,6.31 nM,N#Cc1ccc(CONC(=O)c2ccccc2NCc2ccnc(NC(=O)C3CC3)c2)cc1 [compound 226]
9,79.4 nM,"N#Cc1ccc(CONC(=O)c2cccnc2NCc2ccncc2)c(F)c1 [Compound 158, N-(4-Cyano-2-fluoro-benzyloxy)-2-[(pyridin-4-ylmethyl)-amino]-nicotinamide]"
10,63.1 nM,"COc1cc(C#N)ccc1CONC(=O)c1cccnc1NCc1ccncc1 [Compound 162, N-(4-Cyano-2-methoxy-benzyloxy)-2-[(pyridin-4-ylmethyl)-amino]-nicotinamide]"
11,10 nM,"CNC(=O)Nc1cc(CNc2ccccc2C(=O)NOCC2CCCC2)ccn1 [Compound 212, N-Cyclopentylmethoxy-2-{[2-(3-methyl-ureido)-pyridin-4-ylmethyl]-amino}-benzamide]"
12,7.94 nM,O=C(O)CNC(=O)Nc1cc(CNc2ccccc2C(=O)NOCC2CCCC2)ccn1 [compound 217]
13,39.8 nM,C=C(C)C(=O)OCCNC(=O)Nc1cc(CNc2ccccc2C(=O)NOCC2CCCC2)ccn1 [compound 219]
14,50.1 nM,"O=C(NOC[C@H]1CC[C@H](CO)CC1)c1ccccc1NCc1ccncc1 [Compound 130, N-(trans-4-Hydroxymethyl-cyclohexylmethoxy)-2-[(pyridin-4-ylmethyl)-amino]-benzamide]"
15,10 nM,O=C(NOCC1CCCC1)c1ccccc1NCc1ccnc2ccccc12 [compound 233]
